Measurements taken from patent publication US11696916B2, “Carboxamide-pyrimidine derivatives as SHP2 antagonists” (Merck Patent GmbH, priority 2019, dated 2023).

Tests used:
[1] = target: Full length SHP2 protein (Recombinant Human SHP-2) (Homo sapiens (Human), UniProt Q06124); experiment: SHP2 biochemical assay (DiFMUP, activating peptide IRS1_2pY); details: DiFMUP substrate, 60 min RT
Procedure: The inhibition of SHP2 by compounds of the invention was monitored using the surrogate substrate DiFMUP after protein activation by a peptide bearing two appropriately spaced phosphotyrosine. […] The generation of the DiFMU product by activated SHP2 was monitored through Fluorescence measurement with a PerkinElmer Envision reader. The inhibitor dose response curves were analyzed with Genedata Screener.

[2] = Pharmacokinetics in mouse; type: in vivo; details: for Cmax Normalized to 1 mgk / AUC (normalized 1 mpk): female CD1 mice; for Cmax Normalized to 1 mgk: normalized to 1 mg/kg; for AUC (normalized 1 mpk): normalized to 1 mpk; for Exposure compared to SHP-099: mouse PK
Procedure: Female CD1 mice (N=3) received a single oral (gavage) or a single intravenous (bolus) injection of compound. […] Consecutive blood samples were taken sub-lingually under isofluorane inhalation from animals after 0.083 (IV), 0.25, 0.5, 1, 2, 4, 6 and 24 h and were further processed to obtain plasma. Samples were protein precipitated and analyzed by LC/MS/MS.

[3] = system: pERK level in KYSE520 cells; experiment: p-Erk cellular assay in KYSE520 (Mesoscale); type: cell-based; details: Homo sapiens, KYSE-520, 2 h, 2 h compound incubation, read-out: pERK1/2 in KYSE520 IC50
Procedure: The effect of SHP2 inhibitors on pERK level was assessed using phospho-specific antibody using Mesoscale quantification platform. For measuring change in pERK levels using mesoscale, 30,000 cells of MDA MB468 and KYSE520 cells were plated in 96-well tissue culture treated plate in 175 ul volume of media. After an overnight incubation at 37° C., various SHP2 inhibitors were added in different concentration to each well maintaining duplicate wells across plates and incubated with compounds for 2 h at 37° C. followed by a wash with ice cold PBS buffer. The cells were then lysed in lysis buffer and processed and analyzed for p-ERK/ERK as per manufacturer's instructions (Mesoscale discovery, cat No. K15107D-3).

Full length SHP2 protein (Recombinant Human SHP-2), sequence (Q06124 2-593): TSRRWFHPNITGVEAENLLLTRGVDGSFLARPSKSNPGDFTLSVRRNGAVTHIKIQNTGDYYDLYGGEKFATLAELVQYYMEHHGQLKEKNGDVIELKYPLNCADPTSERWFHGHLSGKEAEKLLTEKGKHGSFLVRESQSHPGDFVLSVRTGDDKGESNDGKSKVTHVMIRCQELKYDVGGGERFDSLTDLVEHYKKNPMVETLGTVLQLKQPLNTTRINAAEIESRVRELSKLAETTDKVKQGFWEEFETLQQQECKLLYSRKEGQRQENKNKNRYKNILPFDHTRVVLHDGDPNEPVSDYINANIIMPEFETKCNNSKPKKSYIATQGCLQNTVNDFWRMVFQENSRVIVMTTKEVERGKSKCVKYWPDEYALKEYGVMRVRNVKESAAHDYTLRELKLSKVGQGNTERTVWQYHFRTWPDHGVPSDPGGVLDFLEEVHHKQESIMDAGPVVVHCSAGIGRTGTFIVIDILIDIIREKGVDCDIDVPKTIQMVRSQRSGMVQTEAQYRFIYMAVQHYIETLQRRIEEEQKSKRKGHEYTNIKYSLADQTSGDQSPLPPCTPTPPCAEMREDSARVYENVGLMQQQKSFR

IC50 [1] [nM] | IC50 [3] [nM] | SMILES | also measured
 | 114 | NC(=O)c1nc(N2CCC3(CC2)Cc2ccccc2[C@H]3N)nc(N)c1-c1cccc(Cl)c1Cl (atropisomer, axis not shown; (M)) [Compound 118, (5M)-6-amino-2-[(1S)-1-amino-1,3-dihydrospiro[indene-2,4′-piperidin]-1′-yl]-5-(2,3-dichlorophenyl)pyrimidine-4-carboxamide] | 
 | 21 | Cc1nc(N2CCC3(CC2)Cc2ccccc2[C@H]3N)nc(C(N)=O)c1-c1cccc(Cl)c1Cl (atropisomer, axis not shown; (M)) [Compound 119, (M)-2-[(1S)-1-amino-1,3-dihydrospiro[indene-2,4′-piperidin]-1′-yl]-5-(2,3-dichlorophenyl)-6-methylpyrimidine-4-carboxamide] | 
 | 161 | NC(=O)c1nc(N2CCC3(CC2)Oc2ncccc2C3N)nc(N)c1-c1cccc(Cl)c1Cl (single isomer, unassigned) [Compound 128] | 
 | 268 | Cc1nc(N2CCC3(CC2)Oc2ncccc2[C@H]3N)nc(C(N)=O)c1-c1cccc(Cl)c1Cl [Compound 124, (4M)-2-[(3R)-3-amino-3H-spiro[furo[2,3-b]pyridine-2,4′-piperidin]-1′-yl]-5-(2,3-dichlorophenyl)-6-methylpyrimidine-4-carboxamide] | 
 | 2240 | NC(=O)c1nc(N2CCC3(CC2)Oc2ncccc2[C@@H]3N)nc(N)c1-c1cccc(Cl)c1Cl (atropisomer, axis not shown; (M)) [Compound 130, (4M)-6-amino-2-[(3R)-3-amino-3H-spiro[furo[2,3-b]pyridine-2,4-piperidin]-1-yl]-5-(2,3-dichlorophenyl)pyrimidine-4-carboxamide] | 

Further lines, the molecule ahead of its results:

SMILES | IC50 [1] [nM] | IC50 [3] [nM] | also measured
Cc1nc(N2CCC3(CC2)CC(F)(F)C[C@H]3N)nc(C(N)=O)c1-c1cccc(Cl)c1Cl (atropisomer, axis not shown; (P)) [Compound 97, (5P)-2-[(1R)-1-amino-3,3-difluoro-8-azaspiro[4.5]decan-8-yl]-5-(2,3-dichlorophenyl)-6-methylpyrimidine-4-carboxamide] | 4400 |  | 
Cc1nc(N2CCC3(CC2)CC(F)(F)C[C@H]3N)nc(C(N)=O)c1-c1cccc(Cl)c1Cl (atropisomer, axis not shown; (M)) [Compound 96, (5M)-2-[(1R)-1-amino-3,3-difluoro-8-azaspiro[4.5]decan-8-yl]-5-(2,3-dichlorophenyl)-6-methylpyrimidine-4-carboxamide] | 62 |  | 
C[C@@H]1OCC2(CCN(c3nc(N)c(-c4cccc(Cl)c4Cl)c(C(N)=O)n3)CC2)[C@@H]1N (atropisomer, axis not shown; (M)) [Compound 67, (5M)-6-amino-2-[(3S,4S)-4-amino-3-methyl-2-oxa-8-azaspiro[4.5]decan-8-yl]-5-(2,3-dichlorophenyl)pyrimidine-4-carboxamide] | 16000 |  | 
CC1(N)CCN(c2nc(N)c(-c3cccc(Cl)c3Cl)c(C(N)=O)n2)CC1 [Compound 27, (4P)-6-amino-2-(4-amino-4-methylpiperidin-1-yl)-5-(2,3-dichlorophenyl)pyrimidine-4-carboxamide] |  |  | Cmax Normalized to 1 mgk [2]: 48 ng/mL; AUC (normalized 1 mpk) [2]: 230 ng·h/mL; Exposure compared to SHP-099 [2]: higher exposure
Cc1nc(N2CCC3(CC2)CO[C@@H](C)[C@H]3N)nc(C(N)=O)c1-c1cccc(Cl)c1Cl (single isomer, unassigned) [Compound 95] |  |  | Cmax Normalized to 1 mgk [2]: 150 ng/mL; AUC (normalized 1 mpk) [2]: 1214 ng·h/mL; Exposure compared to SHP-099 [2]: higher exposure
CC1(N)CCN(c2cnc(-c3cccc(Cl)c3Cl)c(N)n2)CC1 [SHP-099, SHP099, reference compound] |  |  | Cmax Normalized to 1 mgk [2]: 48 ng/mL; AUC (normalized 1 mpk) [2]: 129 ng·h/mL
NC(=O)c1nc(N2CCC3(CC2)Cc2ccccc2[C@H]3N)nc(N)c1-c1cccc(Cl)c1Cl (single isomer, unassigned) [Compound 117] |  | 1 | 
C[C@@H]1OCC2(CCN(c3nc(N)c(-c4cccc(Cl)c4Cl)c(C(N)=O)n3)CC2)[C@@H]1N (atropisomer, axis not shown; (P)) [Compound 66, (5P)-6-amino-2-[(3S,4S)-4-amino-3-methyl-2-oxa-8-azaspiro[4.5]decan-8-yl]-5-(2,3-dichlorophenyl)pyrimidine-4-carboxamide] | 52 |  | 
